Laboratory results published in article PMC5617480 (Oncotarget, 2017).
Blank lines part the entries; values can stand above or below the molecule they belong to.

Columns and labels:
[1] = test system: Pu22; parameters: method as in earlier work; conditions: ref [1], cited from earlier work; for ctDNADC50/Pu22DC50: FID selectivity ratio; for Pu22DC50: FID
[2] = test system: Pu27 (DNA, G4) TGGGGAGGGTGGGGAGGGTGGGGAAGG; experiment: fluorescent intercalator displacement (FID); conditions: thiazole orange displaced
[3] = test system: BEL-7404 cells; parameters: method as in earlier work; conditions: BEL-7404, 48 h; ref [1]; cited from earlier work
[4] = test system: c-kit-2; parameters: method as in earlier work; conditions: ref [1], cited from earlier work; for ctDNADC50/c-kit-2DC50: FID selectivity ratio; for c-kit-2DC50: FID
[5] = test system: BEL-7402 cells; parameters: method as in earlier work; conditions: BEL-7402, 48 h; ref [1]; cited from earlier work
[6] = test system: A549 cells; parameters: method as in earlier work; conditions: A549, 48 h; ref [1]; cited from earlier work
[7] = test system: c-kit-1; experiment: FID assay; type: binding; conditions: for c-kit-1DC50: FID; for ctDNADC50/c-kit-1DC50: FID selectivity ratio
[8] = test system: Pu27 (c-myc) G4; experiment: FID assay; type: binding; conditions: for Pu27DC50: FID; for ctDNADC50/Pu27DC50: FID selectivity ratio
Description: (§1) We asked whether chiral platinum(II) complexes 4–6 have the ability to bind to G-quadruplex DNA. To address this, FRET assays, CD spectroscopy, G4-FID assays, and fluorescence titration analysis were performed. […] For G4-HTG21, the ^G4DC50 values of complexes 4–6 were 1.23, 1.26 and 0.99 μM, respectively; while, for G4-Pu27, the ^G4DC50 values were 1.01, 0.89, and 0.82 μM, respectively. In addition, the ^ctDNADC50/^G4DC50 ratio of the HTG21 and Pu27 G4s treated with complexes 4–6 was in the range of 50.54-90.65 and 71.56-110.67 folds, respectively. To further evaluate the binding ability of complexes 4–6 to Pu27 and HTG21G4s, CD spectroscopy and fluorescence titration analysis were performed. […] The quenching ability of complexes 4–6 to HTG21 and Pu27 G4 DNA fluorescence can be quantitatively estimated by their respective quenching constant (Kq), which was derived from the Stern-Volmer quenching equation. […] Finally, the selective binding of complexes 4–6 towards G4 DNA was analyzed by FRET-melting assays. […] In contrast, the ΔTm value for the F32T+H20M duplex DNA in the presence of complexes 4–6 was 1.18, 1.34, and 0.78 °C under the same conditions (Figure 4A). Altogether, our data indicated complexes 4–6, especially complex 6, is the best binder to G4 DNA, which caused DNA complex displaying the highest thermodynamic stability. […]
(§2) Supplementary Figure 20: FID results onto 4 (A), 5 (B) and 6 (C) toward DNA in sodium cacodylate buffer solution. […]

[9] = test system: ctDNA; experiment: FID assay; type: binding; conditions: for ctDNADC50: FID; for ctDNADC50/ctDNADC50: FID selectivity ratio
Description: as §1, §2

[10] = test system: BEL-7404 cells; experiment: Apoptosis analysis (annexin V-FITC/PI flow cytometry); type: cell-based, human; conditions: BEL-7404, 10 μM, 24 h; untreated 6.1%
Description: Platinum(II)-based drugs were widely used in anticancer chemotherapies, therefore, we performed experiments to test the potency of chiral platinum(II) complexes 4–6 for inducing senescence and apoptosis in BEL-7404 cells. […] We next investigated the effect of complexes 4–6 on the induction of apoptosis. BEL-7404 cells were incubated with complexes 4 (10 and 20 μM), 5 (10 and 20 μM) and 6 (5, 10 and 20 μM) for 24 h, respectively, and then these cells staining with PI and Annexin-V-FITC were determined by flow cytometry (Figure 3A and Supplementary Figure 18). As shown in Figure 3A and Supplementary Figure 18, after treated of complexes 4–6 with 10 μM for 24 h, the percentage of apoptotic cells (including early-stage and late-stage, Q2+Q4) was 13.1%, 7.0% and 25.4%, respectively, whereas the normal cells was only 6.1%. We further investigated the ability of complexes 4–6 (5, 10 and 20 μM) to induce BEL-7404 cell cycle arrest (Figure 3B and Supplementary Figure 19). Cells were treated with complexes 4–6 at 10 μM for 48 h, the cell cycle arrest was determined by using flow cytometry. […]
Apoptosis analysis c-myc antibody, or anti-β-actin primary antibody and the Apoptosis was detected by flow cytometric analysis corresponding secondary antibody were used to detect of annexin V staining. […] Then, cells were incubated with annexin V-FITC and PI for 1.0 h at Staining for SA-β-Gal activity was carried out room temperature in the dark and immediately analyzed according to Moore and Chen reports. […] The data are presented as biparametric After the long-term incubation with complexes 4–6, the dot plots showing PI red fluorescence vs annexin V-FITC growth medium was aspirated and the BEL-7404 cells green fluorescence. were fixed in 2% formaldehyde/0.2% glutaraldehyde for 15.0 min at room temperature. […] Finally, the extraction, RT-PCR, and the selective binding to G4s by BEL-7404 cell cycle was determined with FACS Calibur complexes 4–6 was according to the our previous reported flow cytometer (BD) and analyzed using Cell Quest. […]

G4DC50 [2]: 1.01 µM
Molecule: O=C(NCC(O)CO)c1cnc2c3c(cccc13)-c1ccccc1C2=O.[Cl-].[Cl-].[Pt+2] (racemic) [ligand 1, R/S-(±)-FOA]
ctDNADC50/Pu22DC50 [1]: 1.88
Pu22DC50 [1]: 33.97 µM
IC50 [3]: 17.2 ± 0.1 µM
ctDNADC50/c-kit-2DC50 [4]: < 0.64
c-kit-2DC50 [4]: > 100 µM
IC50 [5]: 30.4 ± 1.5 µM
IC50 [6]: 20.2 ± 0.5 µM

G4DC50 [2]: 0.89 µM
Molecule: O=C(NC[C@@H](O)CO)c1cnc2c3c(cccc13)-c1ccccc1C2=O.[Cl-].[Cl-].[Pt+2] [ligand 2, R-(+)-FOA]
ctDNADC50/Pu22DC50 [1]: 0.69
Pu22DC50 [1]: 57.62 µM
IC50 [3]: 20.5 ± 0.1 µM
ctDNADC50/c-kit-2DC50 [4]: < 0.40
c-kit-2DC50 [4]: > 100 µM
IC50 [5]: 68.6 ± 0.8 µM
IC50 [6]: 24.1 ± 0.4 µM

G4DC50 [2]: 0.82 µM
Molecule: O=C(NC[C@H](O)CO)c1cnc2c3c(cccc13)-c1ccccc1C2=O.[Cl-].[Cl-].[Pt+2] [ligand 3, S-(–)-FOA]
ctDNADC50/Pu22DC50 [1]: 3.49
Pu22DC50 [1]: 25.75 µM
IC50 [3]: 15.4 ± 0.2 µM
ctDNADC50/c-kit-2DC50 [4]: 3.92
c-kit-2DC50 [4]: 22.94 µM
IC50 [5]: 28.5 ± 2.4 µM
IC50 [6]: 20.4 ± 0.3 µM

Molecule: cis-[PtCl2(R-(+)-FOA)] [complex 5]
c-kit-1DC50 [7]: 23.89 µM
ctDNADC50/c-kit-1DC50 [7]: 2.67
Pu27DC50 [8]: 0.89 µM
ctDNADC50/Pu27DC50 [8]: 71.56
ctDNADC50 [9]: 63.69 µM
ctDNADC50/ctDNADC50 [9]: 1.00
percentage of apoptotic cells (early-stage and late-stage, Q2+Q4) [10]: 7.0%

Molecule: cis-[PtCl2(R/S-(±)-FOA)] [complex 4]
c-kit-1DC50 [7]: 1.45 µM
ctDNADC50/c-kit-1DC50 [7]: 52.32
Pu27DC50 [8]: 1.01 µM
ctDNADC50/Pu27DC50 [8]: 75.11
ctDNADC50 [9]: 75.87 µM
ctDNADC50/ctDNADC50 [9]: 1.00
percentage of apoptotic cells (early-stage and late-stage, Q2+Q4) [10]: 13.1%

Molecule: cis-[PtCl2(S-(–)-FOA)] [complex 6]
c-kit-1DC50 [7]: 1.75 µM
ctDNADC50/c-kit-1DC50 [7]: 51.85
Pu27DC50 [8]: 0.82 µM
ctDNADC50/Pu27DC50 [8]: 110.67
ctDNADC50 [9]: 90.73 µM
ctDNADC50/ctDNADC50 [9]: 1.00
percentage of apoptotic cells (early-stage and late-stage, Q2+Q4) [10]: 25.4%
